Laboratory results published in US6337333B1, “Method of treating autoimmune disease with fludarabine-5′-monophosphate” (priority 1992, dated 2002).

Experiments:
[1] = system: T lymphocytes; assay: T lymphocyte proliferative response to mitogen after 18 hr drug pretreatment (3H-thymidine); assay type: cell-based, human; conditions: 18 hr pretreatment; for % Suppression: T lymphocytes
Description: (§1) In FIG. 1, freshly isolated PBMC were enriched for T and B lymphocytes using Nylon Wool (see Materials and Methods, Example A). The enriched lymphocyte subpopulations were then incubated for 18 hrs at 37° C. with various concentrations of drug. At the end of the pretreatment period, the cell samples were washed, adjusted to 2×10^5 viable cells/ml, and cultured at 1×10^4/well in flat (B cells) or round (T cells) bottomed 96 well microtiter plates in […]. The T cells were incubated for 3 days with PHA-P ([…]) or Con A (5 μg/ml) and the B cells were cultured for 6 days with either PWM (2 μg/ml) or SAC ({fraction (1/60,000)}). 1 μCi of ^3H-thymidine was added per well during the last 18 hr of culture. The wells were then harvested onto glass fiber filters, and counted in 7 ml of Cytoscint (ICN) on the LKB 1219 Rackbeta scintillation counter. The results are expressed as the mean cpm of triplicate wells.
(§2) Peripheral blood mononuclear cells obtained from normal donors as packed leukocyte preparations were enriched for T and B lymphocytes and pretreated with drug for 18 hrs prior to mitogen stimulation.
(§3) Peripheral blood mononuclear cells enriched for either T or B lymphocytes were incubated for 18 hrs in complete S-10 medium at 37° C. in 12×75 mm culture tubes at 5×10^5 cells/ml. The cells were then washed in S-10 and cultured in triplicate for either 3 (T lymphocytes) or 6 (B lymphocytes) days at 2.5×10^4/well in round bottom 96-well microtiter plates in S-10 medium at 37° C. and a 5% CO2 humidified atmosphere. The wells were pulsed with 1 μCi 3H-thymidine for the last 18 hr of culture, harvested onto glass fiber filters, and counted with 7 ml Cytoscint with a LKB Rackbeta scintillation counter. The results are reported as “percent Suppression”:
(§4) % Suppression={1−(mean cpm exp./mean cpm stim control)}×100

[2] = system: B lymphocytes; assay: B lymphocyte proliferative response to mitogen after 18 hr drug pretreatment (3H-thymidine); assay type: cell-based, human; conditions: 18 hr pretreatment; for % Suppression: B lymphocytes
Description: as §1, §2, §3, §4

[3] = system: B cell subtypes; conditions: 0.1-1.0 μg/ml for 48 hr, then 5 to 10 days SAC/rIL-2; data not shown
Description: B lymphocytes are incubated with drug (0.1-1.0 μg/ml) for 48 hr, followed by 5 to 10 days culture with SAC/rIL-2. The supernatant is then assayed at 5 and 10 days for IgM, IgG, and IgM-RF. Analyze the cells by flowcytometry at day 5 for CD20, CD20/CD5, CD5/sIgM, CD5/IgG, CD20/5/sIgM, and CD20/5 sIgG.

[4] = system: CD20 positive B lymphocytes; conditions: 48 hr culture with and without PWM, dose range 0.1-5.0 μg/ml, FIG. 3
Description: In FIG. 3, freshly isolated PBMC enriched for CD20 positive B lymphocytes (50% CD19, 45% CD20, 10% CD20/CD5 and 30% CD3/CD5) were cultured over 48 hr with various concentrations of FLP with and without PWM (5 μg/ml). The cells were washed once in C-BSS, and resuspended in 0.5 ml C-BCC with 5 μl of PI. Percent viable CD20 positive cells were determined by analysis on a FACScan using the LYSIS II software. Results are expressed as percent of total gated viable cells.
For viability determination of unfixed samples, 5 μl of a 500 mg/ml stock—solution of propidium iodide (PI) was added to the samples (0.5 ml)—immediately before acquisition.
A dose range of drug between 0.1-5.0 μg/ml was performed on PBMC enriched for B lymphocytes cultured for 48 hr with and without the mitogen PWM (FIG. 3). At the end of the culture period, the cells were washed, stained, and analyzed by flowcytometry for viable CD20 positive B lymphocytes.

[5] = system: collagen-induced arthritis; conditions: 1 and 10 mg/kg/day injected days 0-10 or days 10-20
Description: The study involves two treatment schedules (47). In Schedule I, FLP is injected on a daily basis on days 0-10 at doses of 1 and 10 mg/kg/day. In Schedule II, FLP is injected at days 10-20 at 1 and 10 mg/kg/day. […] Clinical, histological, EIA, and flowcytometry are employed to follow the progress of the disease.

Nc1nc(F)nc2c1ncn2[C@@H]1O[C@H](COP(=O)(O)O)[C@@H](O)[C@@H]1O [FLP, fludarabine-5′-monophosphate]
suppression of T lymphocyte's ability to respond to mitogen ([1]; FIG. 1A): suppress | % Suppression ([1]; CON A (5 μg/ml), BC5, 5 μg/ml of drug): 29% | % Suppression ([1]; CON A (5 μg/ml), BC6, 1 μg/ml of drug): 4% | % Suppression ([1]; CON A (5 μg/ml), BC6, 5 μg/ml of drug): 29% | % Suppression ([1]; CON A (5 μg/ml), BC7, 1 μg/ml of drug): 16% | % Suppression ([1]; CON A (5 μg/ml), BC7, 5 μg/ml of drug): 40% | % Suppression ([1]; CON A (5 μg/ml), leukocyte preparation BC5, 1 μg/ml of drug): 6% | % Suppression ([1]; PHA-P (5 μg/ml), BC5, 1 μg/ml of drug): 24% | % Suppression ([1]; PHA-P (5 μg/ml), BC5, 5 μg/ml of drug): 32% | % Suppression ([1]; PHA-P (5 μg/ml), BC6, 1 μg/ml of drug): 0% | % Suppression ([1]; PHA-P (5 μg/ml), BC6, 5 μg/ml of drug): 15% | % Suppression ([1]; PHA-P (5 μg/ml), BC7, 1 μg/ml of drug): 25% | % Suppression ([1]; PHA-P (5 μg/ml), BC7, 5 μg/ml of drug): 50% | suppression of B lymphocyte's ability to respond to mitogen ([2]; FIG. 1B): suppress | % Suppression ([2]; PWM (1 μg/ml), BC5, 1 μg/ml of drug): 59% | % Suppression ([2]; PWM (1 μg/ml), BC5, 5 μg/ml of drug): 47% | % Suppression ([2]; PWM (1 μg/ml), BC6, 1 μg/ml of drug): 11% | % Suppression ([2]; PWM (1 μg/ml), BC6, 5 μg/ml of drug): 40% | % Suppression ([2]; PWM (1 μg/ml), BC7, 1 μg/ml of drug): 16% | % Suppression ([2]; PWM (1 μg/ml), BC7, 5 μg/ml of drug): 65% | % Suppression ([2]; SAC I (1/60,000), BC5, 1 μg/ml of drug): 14% | % Suppression ([2]; SAC I (1/60,000), BC5, 5 μg/ml of drug): 5% | % Suppression ([2]; SAC I (1/60,000), BC6, 1 μg/ml of drug): 0% | % Suppression ([2]; SAC I (1/60,000), BC6, 5 μg/ml of drug): 49% | % Suppression ([2]; SAC I (1/60,000), BC7, 1 μg/ml of drug): 55% | % Suppression ([2]; SAC I (1/60,000), BC7, 5 μg/ml of drug): 73% | sensitivity of B cell subtypes to drug [3]: CD5 positive B cells are found to be more sensitive | concentration at which effect on viable CD20 positive B lymphocytes becomes evident [4]: 0.5 µg/mL | activity in arthritis model [5]: active following onset of disease
